Where two headings read alike, the source gives them in different places.
Target: human factor Xa (Homo sapiens, UniProt P00742)
Assay: Factor Xa assay (chromogenic, substrate S-2765);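 note: purified enzyme preincubated with inhibitor for 10 min before substrate addition, final reaction volume 100 µl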
Assay type: biochemical
[1] = inhibition constant for factor Xa, purified enzyme 0.5 nM, substrate S-2765 140 μM, 25° C., pH 7.8, Ki=IC50/{1+(substrate concentration/Km)}, read-out: Ki(FXa)

human factor Xa, sequence (P00742 235-488 limits assumed): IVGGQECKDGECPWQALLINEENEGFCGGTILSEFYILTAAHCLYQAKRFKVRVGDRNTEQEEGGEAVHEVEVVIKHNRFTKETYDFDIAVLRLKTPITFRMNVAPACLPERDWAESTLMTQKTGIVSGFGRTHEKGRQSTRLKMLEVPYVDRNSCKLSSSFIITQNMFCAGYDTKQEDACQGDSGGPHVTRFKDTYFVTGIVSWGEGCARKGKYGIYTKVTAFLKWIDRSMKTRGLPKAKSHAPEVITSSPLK
human factor Xa, sequence (P00742 41-179 partner limits assumed): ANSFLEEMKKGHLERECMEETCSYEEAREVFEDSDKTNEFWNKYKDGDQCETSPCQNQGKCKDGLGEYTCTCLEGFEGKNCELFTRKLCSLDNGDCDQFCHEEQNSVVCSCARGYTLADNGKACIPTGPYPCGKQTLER

Structure (SMILES) | Ki (read-out: Ki(FXa)) [nM] | Ki [1] [nM] | further results
COc1ccc(C#N)c2c1c(C#N)c(C(=O)NC1CCN(C(C)C)CC1)n2Cc1cc(-c2ccc(Cl)s2)on1 [Example 208, 1-[5-(5-Chloro-thiophen-2-yl)-isoxazol-3-ylmethyl]-3,7-dicyano-4-methoxy-1H-indole-2-carboxylic acid (1-isopropyl-piperidin-4-yl)-amide] | 1 | – | –
O=C(Cn1c(C(=O)NC2CCN(C3CC3)CC2)cc2ccccc21)Nc1ccc(Cl)cc1 [Example 255, 1-[(4-chloro-phenylcarbamoyl)-methyl]-1H-indole-2-carboxylic acid (1-cyclopropyl-piperidin-4-yl)-amide] | 106 | – | –
COc1ccc2c(c1)cc(C(=O)NC1CCN(C(C)C)CC1)n2Cc1cc(-c2ccc(Cl)s2)on1 [Example 6] | 13 | – | –
CC(C)N1CCC(NC(=O)c2cc3c(F)cc(F)cc3n2Cc2cc(-c3ccc(Cl)s3)on2)CC1 [Example 18] | 16 | – | –
Cc1ccc(C)c2c1cc(C(=O)NC1CCN(C(C)C)CC1)n2Cc1cc(-c2ccc(Cl)s2)on1 [Example 178, 1-[5-(5-Chloro-thiophen-2-yl)-isoxazol-3-ylmethyl]-4,7-dimethyl-1H-indole-2-carboxylic acid (1-isopropyl-piperidin-4-yl)-amide] | – | – | Ki: 1.3 nM
COc1ccc(OC)c2c1cc(C(=O)N(CC(=O)O)C1CCN(C(C)C)CC1)n2Cc1cc(-c2ccc(Cl)s2)on1 [Example 231, [{1-[5-(5-Chloro-thiophen-2-yl)-isoxazol-3-ylmethyl]-4,7-dimethoxy-1H-indole-2-carbonyl}-(1-isopropyl-piperidin-4-yl)-amino]-acetic acid] | 20 | – | –
CC(C)N1CC[C@H](NC(=O)c2cc3ccccc3n2Cc2cc(-c3ccc(Cl)s3)on2)C1 [Example 222, S-1-[5-(5-Chloro-thiophen-2-yl)-isoxazol-3-ylmethyl]-1H-indole-2-carboxylic (1-isopropyl-pyrrolidin-3-yl)-amide] | – | 103 | –

Continued, in another order:

Ki (read-out: Ki(FXa)) [nM] | Ki [1] [nM] | Structure (SMILES) | further results
580 | – | CNC(=O)CN1CCC(NC(=O)c2cc3ccccc3n2Cc2cc(-c3ccc(Cl)s3)on2)CC1 [Example 263, 1-[5-(5-chloro-thiophen-2-yl)-isoxazol-3-ylmethyl]-1H-indole-2-carboxylic acid (1-methylcarbamoylmethyl-piperidin-4-yl)-amide] | –
– | 95 | O=C(NC1CCN(c2ccncn2)CC1)c1cc2ccccc2n1Cc1cc(-c2ccc(Cl)s2)on1 [Example 194, 1-[5-(5-Chloro-thiophen-2-yl)-isoxazol-3-ylmethyl]-1H-indole-2-carboxylic acid (1-pyrimidin-4-yl-piperidin-4-yl)-amide] | –
– | 5 | CC(C)N1CCC(NC(=O)c2cc3cc(Cl)ccc3n2Cc2cc(-c3ccc(Cl)s3)on2)CC1 [Example 5] | –
